Results taken from patent publication US20070087974A1, “TREATMENT OR PREVENTION OF RESPIRATORY VIRAL INFECTIONS WITH IMMUNOMODULATOR COMPOUNDS” (SCICLONE PHARMACEUTICALS, INC., priority 2004, published 2007).
Read-outs that look alike come from different tables or passages of the source. Marks after values point to notes of the source that are not given here.

Test system: Influenza virus A—A/Achi/1/68 (H3N2)
Format: in vivo, outbred CFW female mice
[1] = 10.0 mg/kg per os for 5 days, […]

N[C@H](CCC(=O)N[C@@H](Cc1c[nH]c2ccccc12)C(=O)O)C(=O)O [SCV-07, γ-D-glutamyl-L-tryptophan]
# of mice survived (0.1 mg/kg per os for 5 days, […]): 0 | # of mice survived (1.0 mg/kg per os for 5 days, […]): 0 | Median survival (days) (1.0 mg/kg per os for 5 days, […], p = 0.025 compared to PBS-treated group by Log Rank test): 9.0* days | # of mice survived [1]: 0 | Median survival [1]: 6.0 days | Median survival (mouse, in vivo): 7.0 days
